Patent EP4715056A1, “BIO-BASED TRANS-ACONITATE, PREPARATION METHOD THEREFOR AND USE THEREOF” (Qingdao Institute of Bioenergy and Bioprocess Technology, …, priority 2023, dated 2024)
Where a name gives a salt, the structure may show the parent alone. Read-outs that look alike come from different tables or passages of the source. One block for each compound: values may come before it.

How the values were obtained:
[1] = system: Aspergillus terreus engineered strains; assay type: cell-based; conditions: for effect on the yield of trans-Aconitic acid: additionally added at certain doses, shake flask; for increase of the yield of trans-Aconitic acid: 96 hours of shake flask fermentation
Experimental: Additional supplementation experiments were performed on differential amino acids and vitamins between high-yield and low-yield corn steep liquor powders. Based on the high-yield corn steep liquor powder medium, fermentation verification was performed by adding differential amino acid components and vitamin components separately. Each group was set up with three parallel replicates. After 96 hours of shake flask fermentation, the supernatant of the fermentation broth was collected for quantitative analysis using HPLC detection.

[2] = Water extraction rate (ISO 175-2011); assay type: physicochemical; conditions: PVC composite with 30 parts plasticizer; room temperature, 72 h, deionized water
Experimental: (§1) The above plasticizer is the mixed aconitates prepared in Example 37, and composite materials are prepared according to the above weight ratio and preparation method respectively. At the same time, dioctyl phthalate, tributyl citrate, tributyl aconitate and triisooctyl aconitate are respectively selected as plasticizers to prepare composite materials according to the above weight ratio and preparation method. The test method is the same as that in Test 2 except for the following: • 1. Volatility loss rate: tests were performed in accordance with HG/T 4458-2012 Plastics - Determination of Plasticizer Loss by Activated Carbon Method at a test temperature of 70°C for 24 h. • 2. Water extraction rate: tests were performed in accordance with the standard ISO 175-2011 Test Method for Determination of Immersion Effects of Plastics in Liquid Chemicals at room temperature for 72 h, with deionized water as the extraction solvent. • 3. Ethanol extraction rate: tests were performed in accordance with the standard ISO 175-2011 Test Method for Determination of Immersion Effects of Plastics in Liquid Chemicals at room temperature for 72 h, with ethanol as the extraction solvent. • 4. Petroleum ether extraction rate: tests were performed in accordance with the standard ISO 175-2011 Test Method for Determination of Immersion Effects of Plastics in Liquid Chemicals at room temperature for 72 h, with petroleum ether as the extraction solvent. • 5. Migration rate: tests were performed in accordance with HG/T 4458-2012 Determination of Plasticizer Migration in Plastics at a test temperature of 50°C for 48 h. The materials of absorbent sheets are polyethylene (PE) without additives and standard natural rubber (NR).

[3] = Plasticizer migration rate to NR (HG/T 4458-2012); assay type: physicochemical; conditions: PVC composite with 30 parts plasticizer; 50°C for 48 h
Experimental: as §1

[4] = Hardness (Shore hardness tester, GB/T 531-2008); assay type: physicochemical; conditions: composite: 100 parts PVC resin (K value 60, polydispersity index 4), 30 parts plasticizer, 2 parts oxidized polyethylene wax, 5 parts octyltin maleate
Experimental: The aconitates and tributyl citrate prepared in the above examples and comparative examples were added as plasticizers to PVC resin to obtain PVC plastics. […] The above raw materials were mixed and prepared using the same mixing process to obtain finished PVC products. The performance tests were performed on different plasticizers and the obtained PVC finished products in the above examples and comparative examples. […] Three points were selected for each group of samples, each point was tested once, and a median value was taken. • 2. […] Compatibility: tests were performed using a water value method. Since water molecules are polar, the compatibility between the plasticizer and water can characterize the compatibility between the plasticizer and polar materials (PVC, PLA, and nitrile rubber). When a certain plasticizer has good compatibility with water, it has good compatibility with PVC, and vice versa. In the experiment, 2.5 g of plasticizer and 25 g of acetone were added to a beaker, titrated with a burette filled with deionized water, and agitated while titrating until turbidity appears, and the volume of deionized water consumed was recorded. • 4. Glass transition temperature (Tg): the glass transition temperature was tested using a dynamic mechanical analyzer. Test conditions: nitrogen was taken as the carrier gas, at a test temperature range of -40 to 80°C, a heating rate of 3°C/min, and a frequency of 1 Hz.

[5] = Petroleum ether extraction rate (ISO 175-2011); assay type: physicochemical; conditions: PVC composite with 30 parts plasticizer, room temperature, 72 h
Experimental: as §1

[6] = Glass transition temperature (dynamic mechanical analyzer); assay type: physicochemical; conditions: PVC composite with 30 parts plasticizer, Table 10
[7] = Plasticizer migration rate to PE (HG/T 4458-2012); assay type: physicochemical; conditions: PVC composite with 30 parts plasticizer; 50°C for 48 h
Experimental: as §1

[8] = Volatility loss rate (activated carbon method, HG/T 4458-2012); assay type: physicochemical; conditions: PVC composite with 30 parts plasticizer; 70°C for 24 h
Experimental: as §1

[9] = Compatibility (water value method); assay type: physicochemical; conditions: water value of the plasticizer, Table 9
Experimental: The aconitates and tributyl citrate prepared in the above examples and comparative examples were added as plasticizers to PVC resin to obtain PVC plastics. The PVC plastics include 100 parts of PVC resin, 35 parts of plasticizer, 2 parts of oxidized polyethylene wax, and 5 parts of octyltin maleate. The above raw materials were mixed and prepared using the same mixing process to obtain finished PVC products. The performance tests were performed on different plasticizers and the obtained PVC finished products in the above examples and comparative examples. […] Three points were selected for each group of samples, each point was tested once, and a median value was taken. • 2. […] Compatibility: tests were performed using a water value method. Since water molecules are polar, the compatibility between the plasticizer and water can characterize the compatibility between the plasticizer and polar materials (PVC, PLA, and nitrile rubber). When a certain plasticizer has good compatibility with water, it has good compatibility with PVC, and vice versa. In the experiment, 2.5 g of plasticizer and 25 g of acetone were added to a beaker, titrated with a burette filled with deionized water, and agitated while titrating until turbidity appears, and the volume of deionized water consumed was recorded. • 4. Glass transition temperature (Tg): the glass transition temperature was tested using a dynamic mechanical analyzer. Test conditions: nitrogen was taken as the carrier gas, at a test temperature range of -40 to 80°C, a heating rate of 3°C/min, and a frequency of 1 Hz.

[10] = Tensile properties (GB/T 1040-2006): tensile modulus at 100%, elongation at break, elastic modulus; assay type: physicochemical; conditions: PVC composite with 30 parts plasticizer, Table 9
[11] = Ethanol extraction rate (ISO 175-2011); assay type: physicochemical; conditions: PVC composite with 30 parts plasticizer, room temperature, 72 h
Experimental: as §1

[12] = system: Aspergillus terreus engineered strains; assay type: cell-based; conditions: 30 L fermenter
Experimental: Meanwhile, the medium without added amino acids was used as a control to compare the fermentation yields. […] The primary and secondary seed media were: 150 g/L glucose monohydrate, 4 g/L ammonium sulfate, 2 g/L corn steep liquor powder, 0.4 g/L magnesium sulfate heptahydrate, 0.06 g/L ferrous sulfate heptahydrate, 0.01 g/L diammonium hydrogen phosphate, 40 mg/L zinc sulfate, 40 mg/L copper sulfate, and 0.5 g/L sodium chloride; no L-Trp or L-Met was added to the primary and secondary media. The tertiary fermentation medium was the same as the secondary seed medium, but L-Trp or L-Met was added. The control parameters of the 30 L fermenter were as follows: 300 to 480 rpm, dissolved oxygen (DO) level maintained at 25% to 29%, aeration rate at 20 L/min; DO control was linked during agitation. The control parameters of the 100 L fermenter were as follows: 250 to 280 rpm, DO controlled from 25 to 30% during agitation linkage, and aeration rate controlled f […].

[13] = system: Aspergillus niger engineered strains; conditions: 30 L fermenter, after 132 h of fermentation
Experimental: Fermentation was performed in a 30 L fermenter using the medium added with L-methionine. The control parameters were as follows: 300 to 480 rpm, DO level maintained at 25 to 29%, and aeration rate controlled at 20 L/min.

[14] = system: Aspergillus niger engineered strains; conditions: shake flask, addition amount 0.12 g/L
Experimental: Nutritional factor optimization experiments were performed on the trans-Aconitic acid-producing Aspergillus niger engineered strains constructed in Example 1. Amino acid components were added for fermentation verification using the high-yield corn steep liquor powder medium as the basis.

Structure (SMILES): O=C(O)[C@@H]1CCCN1 [L-proline]
effect on the yield of trans-Aconitic acid [1]: varying degrees of decrease

Structure (SMILES): CCCCCCCCOC(=O)c1ccccc1C(=O)OCCCCCCCC [Dioctyl Phthalate, dioctyl phthalate]
Water extraction rate [2]: 0.32% | Migration rate to NR [3]: 0.81% | Hardness/Shore D [4]: 78 Shore D | Petroleum ether extraction rate [5]: 6.12% | Tg [6]: 48.5 °C | Migration rate to PE [7]: 0.83% | Volatility loss rate [8]: 0.96% | Compatibility [9]: 7.1 mL | Elastic modulus [10]: 487.3 MPa | Elongation at break [10]: 134.9% | Tensile modulus at 100% [10]: 15.1 MPa | Ethanol extraction rate [11]: 5.13%

Structure (SMILES): NC(=O)CC[C@H](N)C(=O)O [L-glutamine]
effect on the yield of trans-Aconitic acid [1]: varying degrees of decrease

Structure (SMILES): NCCCC[C@H](N)C(=O)O [L-lysine]
effect on the yield of trans-Aconitic acid [1]: varying degrees of decrease

Structure (SMILES): CC(O)C(=O)O (stereo not drawn) [lactic acid]
effect on the yield of trans-Aconitic acid [1]: varying degrees of decrease

Structure (SMILES): CSCC[C@H](N)C(=O)O [L-methionine]
final fermentation yield of trans-Aconitic acid ([12]; 0.115 g/L added (26 g/L without adding amino acid)): 65 g/L | increase of the yield of trans-Aconitic acid ([1]; addition of 0.115 g/L): 86.5% | TAA yield [13]: 60 g/L | yield of the recombinant engineered strains [14]: 31.76 g/L

Structure (SMILES): O=C(O)CCCC[C@@H]1SC[C@@H]2NC(=O)N[C@@H]21 [biotin-vitamin B7, biotin]
increase of the yield of trans-Aconitic acid ([1]; addition of 0.11 g/L): 17.5%

Water extraction rate [2]: 1.16% | Migration rate to NR [3]: 2.71% | Hardness/Shore D [4]: 77 Shore D | Petroleum ether extraction rate [5]: 8.91% | Tg [6]: 38.3 °C | Migration rate to PE [7]: 2.12% | Volatility loss rate [8]: 3.87% | Compatibility [9]: 14.3 mL | Elastic modulus [10]: 426.5 MPa | Elongation at break [10]: 146.3% | Tensile modulus at 100% [10]: 13.6 MPa | Ethanol extraction rate [11]: 4.96%
Structure (SMILES): CCCCOC(=O)CC(O)(CC(=O)OCCCC)C(=O)OCCCC [Tributyl citrate, tributyl citrate]

Structure (SMILES): CC[C@H](C)[C@H](N)C(=O)O [L-isoleucine]
effect on the yield of trans-Aconitic acid [1]: varying degrees of decrease

Water extraction rate [2]: 0.14% | Migration rate to NR [3]: 0.18% | Hardness/Shore D [4]: 71 Shore D | Petroleum ether extraction rate [5]: 16.44% | Tg [6]: 43.5 °C | Migration rate to PE [7]: 0.13% | Volatility loss rate [8]: 0.38% | Compatibility [9]: 10.9 mL | Elastic modulus [10]: 397.1 MPa | Elongation at break [10]: 156.3% | Tensile modulus at 100% [10]: 16.1 MPa | Ethanol extraction rate [11]: 14.52%
Structure (SMILES): CC(C)CCCCCOC(=O)C=C(CC(=O)OCCCCCC(C)C)C(=O)OCCCCCC(C)C [Triisooctyl aconitate, triisooctyl aconitate]

Structure (SMILES): N[C@@H](Cc1c[nH]c2ccccc12)C(=O)O [L-tryptophan]
yield of trans-Aconitic acid ([12]; 0.099 g/L added, at 60 h (26 g/L without adding amino acid)): 41.95 g/L | increase of the yield of trans-Aconitic acid ([1]; addition of 0.099 g/L): 46.2% | increase of the yield of trans-Aconitic acid ([1]; addition of 0.2 g/L): 20.7%

Structure (SMILES): CCCCOC(=O)C=C(CC(=O)OCCCC)C(=O)OCCCC [Tributyl aconitate, tributyl aconitate]
Water extraction rate [2]: 0.36% | Migration rate to NR [3]: 1.31% | Hardness/Shore D [4]: 45 Shore D | Petroleum ether extraction rate [5]: 6.03% | Tg [6]: 28.1 °C | Migration rate to PE [7]: 1.26% | Volatility loss rate [8]: 1.08% | Compatibility [9]: 16.7 mL | Elastic modulus [10]: 130.5 MPa | Elongation at break [10]: 257.4% | Tensile modulus at 100% [10]: 8.2 MPa | Ethanol extraction rate [11]: 3.71%

Structure (SMILES): NCC(=O)O [L-glycine]
effect on the yield of trans-Aconitic acid [1]: varying degrees of decrease

Structure (SMILES): CC(C)C[C@H](N)C(=O)O [L-leucine]
increase of the yield of trans-Aconitic acid ([1]; addition of 0.125 g/L): 42%
